Literature values in US20120149711A1, “PIPERIDINE DERIVATIVES USED AS OREXIN ANTAGONISTS” (Glaxo Group Limited, priority 2009, published 2012).
No end group written: not given here.

Test system: freely-feeding rats
Settings: central administration, 4 hour time period

orexin-A: ligand for the orexin-1 receptor; an agonist of the orexin receptors (QPLPDCCRQKTCSCRLYELLHGAGNHAAGILTL; ends and bridges not checked; cysteine pairing not given here; UniProt O43612 34-66, looked up)
increase of food intake over control rats receiving vehicle: approximately four-fold
